The record followed here is US20050250715A1, “Remedy” (priority 2002, published 2005).

Data set [1] relates to NGF. Kind of data set: Enhancing activity for NGF production in L-M cells (NGF in culture medium by enzyme immunoassay). In kind it is cell-based, murine. Conditions: 20 hours; for Amount of NGF Production (%): control = 100%. The method, then: (2) The enhancing activity for NGF production of the compound a was assayed. L-M cells (ATCC CCL-1.2) from murine fibroblasts were suspended in an M199 medium (manufactured by Bio Whittaker) containing 0.5% bactopeptone (manufactured by Gibco) so as to have a concentration of 1.5×10^5 cells/mL. The suspension was put in a 96 well plate in an amount of 0.1 mL each well, and the cells were aseptically cultured. After culturing the cells for 3 days, the medium was removed therefrom, and exchanged with an M199 medium containing 0.5% bovine serum albumin (manufactured by Sigma). The compound a was added thereto, and the cells were cultured for 20 hours. After the termination of the culture, the concentration of NGF in the culture medium was assayed by an enzyme immunoassay method (NGF Emax Immuno Assay System, manufactured by Promega). The experiment was carried out twice, and an average value was taken. […] The amount of NGF production of the control was 0.739 ng/mL. As to the control, the concentration in the culture medium was determined in the same manner except that the compound a was not added. It is the same as that of the following examples.

Data set [2] has as its system mouse. Kind of data set: Oral toxicity in mouse. In kind it is in vivo. The settings on record: mouse (male, 6-week old), orally administered at 1000 mg per kg body weight.

Consider `C[C@@H]1O[C@@H](O[C@H]2[C@H](O[C@H]3[C@H](O[C@H]4CC[C@@]5(C)[C@@H](CC[C@]6(C)[C@@H]5CC=C5[C@@H]7CC(C)(C)C[C@@H](O)[C@]7(C)CC[C@]56C)[C@@]4(C)CO)O[C@H](C(=O)O)[C@@H](O)[C@@H]3O)O[C@H](CO)[C@H](O)[C@@H]2O)[C@H](O)[C@H](O)[C@H]1O` [Compound j, 3-O-[α-L-rhamnopyranosyl(1→2)-β-D-galactopyranosyl-(1→2)-β-D-glucuronopyranosyl]-soyasapogenol B], for which, in data set [1], the “enhancing activity for NGF production (result in words)” value (“enhancing activity for NGF production” below) is “has enhancing activity for NGF production”. Besides, the results for the “Amount of NGF Production (%)” value in data set [1] (Concentration of Sample 0.5 mM), in data set [1] (Concentration of Sample 1.0 mM) and in data set [1] (Concentration of Sample 2 mM) were 138.2%, 176.4% and 212.5%, respectively.

Regarding `CC1(C)CC(=O)C2(C)CCC3(C)C(=CCC4C5(C)CCC(OC6OC(C(=O)O)C(O)C(O)C6OC6OC(CO)C(O)C(O)C6OC6OC(CO)C(O)C(O)C6O)C(C)(CO)C5CCC43C)C2C1` [Compound k, 3-O-[β-D-glucopyranosyl(1→2)-β-D-galactopyranosyl-(1→2)-β-D-glucuronopyranosyl]-soyasapogenol E], in data set [1], the “enhancing activity for NGF production” value is “has enhancing activity for NGF production”. Further, the “Amount of NGF Production (%)” value in data set [1] (Concentration of Sample 1.0 mM) came out at 115.9%; in data set [1] (Concentration of Sample 2 mM), 456.3%.

On to `CC1OC(OC2C(OC3C(OC4CCC5(C)C(CCC6(C)C5CC=C5C7CC(C)(C)CC(=O)C7(C)CCC56C)C4(C)CO)OC(C(=O)O)C(O)C3O)OC(CO)C(O)C2O)C(O)C(O)C1O` [Compound l, 3-O-[α-L-rhamnopyranosyl(1→2)-β-D-galactopyranosyl-(1→2)-β-D-glucuronopyranosyl]-soyasapogenol E], for which the “enhancing activity for NGF production” value in data set [1] was “has enhancing activity for NGF production”. Besides, the “Amount of NGF Production (%)” value in data set [1] (Concentration of Sample 1.0 mM) stood at 145.9%; in data set [1] (Concentration of Sample 2 mM) it was 531.2%.

With `CC(=O)OC1COC(OC2C(O)COC(OC3C(O)C(C)(C)CC4C5=CCC6C7(C)CCC(OC8OC(C(=O)O)C(O)C(O)C8OC8OC(CO)C(O)C(O)C8OC8OC(CO)C(O)C(O)C8O)C(C)(CO)C7CCC6(C)C5(C)CCC43C)C2O)C(OC(C)=O)C1OC(C)=O` [Compound m, 3-O-[β-D-glucopyranosyl(1→2)-β-D-galactopyranosyl-(1→2)-β-D-glucuronopyranosyl]-22-O-[2,3,4-tri-O-acetyl-β-D-xylopyranosyl(1→3)-α-L-arabinopyranosyl]soyasapogenol A], the “enhancing activity for NGF production” value in data set [1] is “has enhancing activity for NGF production”. Further, the “Amount of NGF Production (%)” value in data set [1] (Concentration of Sample 0.5 mM) is reported as 263.3%; in data set [1] (Concentration of Sample 1.0 mM), 250.9%; in data set [1] (Concentration of Sample 2 mM), 233.4%.

For `CC1(C)CC2=C3CC[C@@H]4[C@@]5(C)CCC(O)[C@](C)(CO)[C@@H]5CC[C@@]4(C)[C@]3(C)CC[C@@]2(C)C(O)C1` (stereo partly shown) [Compound n, 13(18)-oleanene-3,22,24-triol], the “enhancing activity for NGF production” value in data set [1] was “has enhancing activity for NGF production”. Besides, the results for the “Amount of NGF Production (%)” value in data set [1] (Table 3: Concentration of Sample 25 mM) and in data set [1] (Table 3: Concentration of Sample 50 mM) were 197.9% and 522.6%, respectively.

`CC1(C)[C@@H](O[C@H]2O[C@H](C(=O)O)[C@@H](O)[C@H](O)[C@H]2O[C@@H]2O[C@H](C(=O)O)[C@@H](O)[C@H](O)[C@H]2O)CC[C@]2(C)[C@H]3C(=O)C=C4[C@@H]5C[C@@](C)(C(=O)O)CC[C@]5(C)CC[C@@]4(C)[C@]3(C)CC[C@@H]12` [Glycyrrhizin, glycyrrhizin, reference compound]: the toxicity result in data set [2] is reported as “no toxicity is found”. For the same compound, the “enhancing activity for NGF production” value in data set [1] is listed as “has enhancing activity for NGF production”. The “Amount of NGF Production (%)” value in data set [1] (Table 4: Concentration of Sample 0.25 mM) is listed as 113.0%; in data set [1] (Table 4: Concentration of Sample 0.5 mM) it was 204.3%; in data set [1] (Table 4: Concentration of Sample 1.0 mM) it was 261.0%.
